The results in this text go back to ChEMBL document CHEMBL4152282, “Synthesis and photodynamic activities of integrin-targeting silicon(IV) phthalocyanine-cRGD conjugates” (Eur J Med Chem, 2018).

Series [1] relates to MCF7. In words: Photocytotoxicity against human MCF7 cells with low expression of alphaVbeta3 integrin assessed as decrease in cell viability preincubated for 2 hrs followed by red light irradiation and measured after overnight incubation by MTT assay. In kind it is functional, cell-based. The conditions noted are these: MCF7, light or radiation study. A general note: Formazan colour is commonly taken as a measure of viable cells.

Series [2] relates to MCF7. In words: Photocytotoxicity against human MCF7 cells with low expression of alphaVbeta3 integrin assessed as decrease in cell viability preincubated for 24 hrs followed by red light irradiation and measured after overnight incubation by MTT assay. It is filed as functional, cell-based. Conditions: MCF7, light or radiation study; call rule not given here.
A short description of series [3]: Aggregation behavior of compound in DMF at 1 to 6 uM by UV-vis absorption spectra analysis. In kind it is physicochemical.
A short description of series [4]: Photostability in DMF assessed as release of singlet oxygen at 4 uM preincubated with DPBF in dark followed by irradiation with red light by DPBF decay assay. In kind it is functional.
Series [5] is described as follows: Aggregation behavior of compound in RPMI 1640 medium with 0.05% cremophor EL at 3 uM by UV-vis absorption spectra analysis. It is filed as physicochemical.
Series [6] is described as follows: Selectivity ratio of IC50 for human MCF7 cells with low expression of alphaVbeta3 integrin to IC50 for human HT-29 cells with high expression of alphaVbeta3 integrin preincubated for 2 hrs followed by red light irradiation and measured after overnight incubation by MTT assay. It is filed as functional.
A short description of series [7]: Selectivity ratio of IC50 for human MCF7 cells with low expression of alphaVbeta3 integrin to IC50 for human HT-29 cells with high expression of alphaVbeta3 integrin preincubated for 24 hrs followed by red light irradiation and measured after overnight incubation by MTT assay. It is filed as functional.
A short description of series [8]: Aggregation behavior of compound in water at 3 uM by UV-vis absorption spectra analysis. In kind it is physicochemical. Conditions: buffer.
In series [9] the test system is HT-29. In words: Photocytotoxicity against human HT-29 cells with high expression of alphaVbeta3 integrin assessed as decrease in cell viability preincubated for 24 hrs followed by red light irradiation and measured after overnight incubation by MTT assay. In kind it is functional, cell-based. The conditions noted are these: HT-29, light or radiation study.
In series [10] the test system is HT-29. The series is described as follows: Photocytotoxicity against human HT-29 cells with high expression of alphaVbeta3 integrin assessed as decrease in cell viability preincubated for 2 hrs followed by red light irradiation and measured after overnight incubation by MTT assay. It is filed as functional, cell-based. Conditions: HT-29, light or radiation study.

Series [11] in a line: Aggregation behavior of compound in DMF by UV-vis absorption spectra analysis. It is filed as physicochemical.

The term IC50 denotes the concentration that gives 50% inhibition. Turning to `N=C(N)NCCC[C@@H]1NC(=O)[C@H](Cc2cn(CCOCCO[Si]3(OCCOCCO)n4c5c6ccccc6c4/N=C4N=C(/N=c6/c7ccccc7/c(n63)=N/C3=NC(=N\5)/c5ccccc53)c3ccccc3\4)nn2)NC(=O)[C@@H](Cc2ccccc2)NC(=O)[C@H](CC(=O)O)NC(=O)CNC1=O` (some centres undefined), the IC50 is 33 nM with MCF7 [1], 39 nM in the series with MCF7 [2], 35 nM with HT-29 [9] and 33 nM in the series with HT-29 [10]. Moreover, the Activity entry in series [3], in series [5] and in series [8] was “Not Active” throughout. Besides, the Stability result in [4] is reported as “Unstable”. The “Ratio IC50” value in series [6] turned out to be 1; in series [7], 1.11.

Take `[N-]=[N+]=NCCOCCOCCOCCO[Si]1(OCCOCCOCCOCCO)n2c3c4ccccc4c2/N=C2N=C(/N=c4/c5ccccc5/c(n41)=N/C1=NC(=N\3)/c3ccccc31)c1ccccc1\2` (centres undefined): the IC50 in the series with MCF7 [1] was 2.7 nM; in the series with MCF7 [2], 1.7 nM; with HT-29 [9], 1.4 nM; with HT-29 [10], 2.6 nM. Besides, the Activity result in series [11] is on record as “Not Active”. In addition, the Stability result in [4] is “Unstable”. In addition, the “Ratio IC50” value in [6] stood at 1.04; in [7], 1.21.

Turning to `[N-]=[N+]=NCCOCCOCCOCCO[Si]1(OCCOCCOCCOCCN=[N+]=[N-])n2c3c4ccccc4c2/N=C2N=C(/N=c4/c5ccccc5/c(n41)=N/C1=NC(=N\3)/c3ccccc31)c1ccccc1\2` (centres undefined), the IC50 in the series on MCF7 [1] was 6.5 nM; in the series on MCF7 [2], 4 nM; in the series on HT-29 [9], 3.9 nM; in the series with HT-29 [10], 6.3 nM. The Activity result in series [11] is given as “Not Active”. For the same compound, the Stability entry in series [4] is “Unstable”. Besides, the “Ratio IC50” value in series [6] and in [7] was 1.03 in each case.

As to `OCCOCCO[Si]1(OCCOCCO)n2c3c4ccccc4c2/N=C2N=C(/N=c4/c5ccccc5/c(n41)=N/C1=NC(=N\3)/c3ccccc31)c1ccccc1\2`, the IC50 came out at 1 nM with MCF7 [1], 0.9 nM with MCF7 [2], 0.8 nM in the series on HT-29 [9] and 1.2 nM in the series on HT-29 [10]. In series [11], the Activity result was “Not Active”. Moreover, the Stability entry in [4] is on record as “Unstable”. The “Ratio IC50” value in series [6] was 0.83; in series [7] it was 1.13.

Turning to `N=C(N)NCCC[C@@H]1NC(=O)[C@H](Cc2cn(CCOCCO[Si]3(OCCOCCn4cc(C[C@@H]5NC(=O)[C@@H](Cc6ccccc6)NC(=O)[C@H](CC(=O)O)NC(=O)CNC(=O)[C@H](CCCNC(=N)N)NC5=O)nn4)n4c5c6ccccc6c4/N=C4N=C(/N=c6/c7ccccc7/c(n63)=N/C3=NC(=N\5)/c5ccccc53)c3ccccc3\4)nn2)NC(=O)[C@@H](Cc2ccccc2)NC(=O)[C@H](CC(=O)O)NC(=O)CNC1=O` (some centres undefined), the IC50 in the series on MCF7 [1] is 38 nM; with MCF7 [2], 23 nM; with HT-29 [9], 14 nM; in the series with HT-29 [10], 22 nM. In addition, the Activity result in series [3], in [5] and in series [8] was “Not Active” throughout. For the same compound, in [4], the Stability result is recorded as “Unstable”. In addition, the “Ratio IC50” value in series [6] amounted to 1.73; in series [7], 1.64.

For `N=C(N)NCCC[C@@H]1NC(=O)[C@H](Cc2cn(CCOCCOCCO[Si]3(OCCOCCOCCO)n4c5c6ccccc6c4/N=C4N=C(/N=c6/c7ccccc7/c(n63)=N/C3=NC(=N\5)/c5ccccc53)c3ccccc3\4)nn2)NC(=O)[C@@H](Cc2ccccc2)NC(=O)[C@H](CC(=O)O)NC(=O)CNC1=O` (some centres undefined), the IC50 in the series with MCF7 [1] stood at 39 nM; in the series with MCF7 [2], 26 nM; with HT-29 [9], 26 nM; in the series with HT-29 [10], 32 nM. Besides, the Activity result in series [3], in [5] and in series [8] was “Not Active” throughout. Moreover, the Stability entry in series [4] is “Unstable”. Further, the results for the “Ratio IC50” value in series [6] and in series [7] were 1.22 and 1, respectively.

Regarding `N=C(N)NCCC[C@@H]1NC(=O)[C@H](Cc2cn(CCOCCOCCOCCO[Si]3(OCCOCCOCCOCCO)n4c5c6ccccc6c4/N=C4N=C(/N=c6/c7ccccc7/c(n63)=N/C3=NC(=N\5)/c5ccccc53)c3ccccc3\4)nn2)NC(=O)[C@@H](Cc2ccccc2)NC(=O)[C@H](CC(=O)O)NC(=O)CNC1=O` (some centres undefined), the IC50 with MCF7 [1] was 35 nM; with MCF7 [2], 33 nM; with HT-29 [9], 32 nM; in the series on HT-29 [10] it was 32 nM. In addition, the Activity entry in [3], in series [5] and in series [8] was “Not Active” throughout. Besides, the Stability entry in [4] is “Unstable”. The figures for the “Ratio IC50” value in series [6] and in series [7] were 1.09 and 1.03, respectively.

For the compound `[N-]=[N+]=NCCOCCOCCO[Si]1(OCCOCCOCCO)n2c3c4ccccc4c2/N=C2N=C(/N=c4/c5ccccc5/c(n41)=N/C1=NC(=N\3)/c3ccccc31)c1ccccc1\2` (centres undefined), the IC50 was found to be 2.5 nM with MCF7 [1], 1.3 nM in the series with MCF7 [2], 1.7 nM in the series on HT-29 [9] and 3 nM in the series on HT-29 [10]. Also, the Activity result in series [11] was “Not Active”. Also, the Stability entry in [4] is “Unstable”. Also, the “Ratio IC50” value in [6] is reported as 0.83; in [7] it was 0.76.

On to `[N-]=[N+]=NCCOCCO[Si]1(OCCOCCN=[N+]=[N-])n2c3c4ccccc4c2/N=C2N=C(/N=c4/c5ccccc5/c(n41)=N/C1=NC(=N\3)/c3ccccc31)c1ccccc1\2` (centres undefined), for which the IC50 in the series with MCF7 [1] stood at 12 nM; in the series with MCF7 [2], 4.4 nM; in the series on HT-29 [9] it was 7.1 nM; in the series with HT-29 [10], 12 nM. In addition, the outcome in [11] was Active. Moreover, the Stability entry in [4] is given as “Unstable”. Besides, the figures for the “Ratio IC50” value in [6] and in series [7] were 1 and 0.62, respectively.

`[N-]=[N+]=NCCOCCOCCO[Si]1(OCCOCCOCCN=[N+]=[N-])n2c3c4ccccc4c2/N=C2N=C(/N=c4/c5ccccc5/c(n41)=N/C1=NC(=N\3)/c3ccccc31)c1ccccc1\2` (centres undefined): the IC50 with MCF7 [1] was 12 nM; in the series with MCF7 [2], 11 nM; in the series with HT-29 [9], 7.9 nM; with HT-29 [10] it was 8.6 nM. For the same compound, in series [11], the Activity entry was “Not Active”. The Stability entry in series [4] is given as “Unstable”. The figures for the “Ratio IC50” value in [6] and in [7] were 1.4 and 1.39, respectively.

Regarding `N=C(N)NCCC[C@@H]1NC(=O)[C@H](Cc2cn(CCOCCOCCOCCO[Si]3(OCCOCCOCCOCCn4cc(C[C@@H]5NC(=O)[C@@H](Cc6ccccc6)NC(=O)[C@H](CC(=O)O)NC(=O)CNC(=O)[C@H](CCCNC(=N)N)NC5=O)nn4)n4c5c6ccccc6c4/N=C4N=C(/N=c6/c7ccccc7/c(n63)=N/C3=NC(=N\5)/c5ccccc53)c3ccccc3\4)nn2)NC(=O)[C@@H](Cc2ccccc2)NC(=O)[C@H](CC(=O)O)NC(=O)CNC1=O` (some centres undefined), the IC50 with MCF7 [1] turned out to be 32 nM; in the series on MCF7 [2] it was 32 nM; in the series on HT-29 [9], 13 nM; in the series with HT-29 [10], 19 nM. In addition, the Activity entry in [3], in [5] and in series [8] was “Not Active” throughout. The Stability entry in [4] was “Unstable”. Moreover, the “Ratio IC50” value stood at 1.68 in series [6] and 2.46 in series [7].

In the case of `OCCOCCOCCOCCO[Si]1(OCCOCCOCCOCCO)n2c3c4ccccc4c2/N=C2N=C(/N=c4/c5ccccc5/c(n41)=N/C1=NC(=N\3)/c3ccccc31)c1ccccc1\2`, the IC50 in the series on MCF7 [1], in the series on MCF7 [2], with HT-29 [9] and in the series on HT-29 [10] was 0.2 nM in each case. In series [11], the Activity entry is on record as “Not Active”. The Stability entry in [4] is given as “Unstable”. For the same compound, the “Ratio IC50” value in series [6] and in [7] was 1 in each case.

As to `[N-]=[N+]=NCCOCCO[Si]1(OCCOCCO)n2c3c4ccccc4c2/N=C2N=C(/N=c4/c5ccccc5/c(n41)=N/C1=NC(=N\3)/c3ccccc31)c1ccccc1\2` (centres undefined), the IC50 in the series on MCF7 [1] stood at 3.7 nM; with MCF7 [2], 2.6 nM; in the series with HT-29 [9], 2.2 nM; in the series on HT-29 [10], 3.2 nM. Besides, the Activity entry in series [11] is given as “Not Active”. In addition, the Stability result in [4] is “Unstable”. For the same compound, the “Ratio IC50” value is listed as 1.15 in series [6] and 1.18 in series [7].
